Laboratory results from PMC7716246 (ACS chemical neuroscience, 2020).
Read-outs that look alike come from different tables or passages of the source.

Assays:
Aβ42 peptide [1] = molecular target: T1, Aβ42 peptide (Homo sapiens, UniProt P05067); assay: Inhibition of Aβ42 aggregation, ThT fluorescence; format: biochemical; conditions: in presence and absence of Cu^2+ or Zn^2+; [Aβ] = [M^2+] = [AMF] = 25 μM, 37 °C, 24 h
Aβ42 fibrils [2] = molecular target: T2, Aβ42 fibrils (Homo sapiens, UniProt P05067); assay: Disaggregation of preformed Aβ42 fibrils, ThT fluorescence; format: biochemical; conditions: in the absence and presence of Cu^2+; [Aβ] = [M^2+] = [AMF] = 25 μM, additional 24 h at 37 °C
amyloid plaques = format: binding, 5xFAD transgenic mice; conditions: brain sections of 7 month old 5xFAD mice
Aβ42 peptide [3] = molecular target: T1, Aβ42 peptide; assay: Inhibition of Aβ42 aggregation, TEM and native gel electrophoresis/Western blot; format: biochemical; conditions: 37 °C, 24 h; for Aβ42 aggregates observed by TEM: [Aβ42] = [M^2+] = [AMF] = 25 μM; for Aβ42 aggregates by native gel/Western blot: 25 μM
Aβ fibrils (Aβ40) = Aβ fibrils (Aβ40) (Homo sapiens, UniProt P05067); assay: Thioflavin T; format: binding
Aβ42 fibrils [4] = molecular target: T2, Aβ42 fibrils; format: biochemical; conditions: 25 μM, 37 °C; for Disaggregation of Aβ42 aggregates (TEM, native gel/Western blot): 24 h then 24 h with AMF
[5] = UV-vis Cu^2+ binding and Job's plot analysis of AMF:Cu^2+ stoichiometry; format: physicochemical
[6] = pH 7.4; 2:1 Metal:AMF mixture, [M^2+]tot = 25 μM, [AMF]tot = 50 μM
[7] = 2:1 Metal:AMF mixture, [M^2+]tot = 25 μM, [AMF]tot = 50 μM
[8] = Cu^2+-induced ascorbate consumption assay; format: biochemical; conditions: [Cu^2+] = 10 μM, [AMF] = 24 μM, [ascorbate] = 100 μM

T1 sequence (P05067 672-713 limits assumed): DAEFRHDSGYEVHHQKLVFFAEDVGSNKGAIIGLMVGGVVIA
T2 sequence (P05067 672-713 limits assumed): as above
Chain of Aβ fibrils (Aβ40) (P05067 672-711 limits assumed): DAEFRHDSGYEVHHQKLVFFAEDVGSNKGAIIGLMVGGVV

- Ki (Aβ fibrils (Aβ40)): 287 ± 20 nM
- Disaggregation of Aβ42 aggregates (TEM, native gel/Western blot) (Aβ42 fibrils [4]; Zn^2+-incubated Aβ42 amorphous aggregates): decreases to some extent
- Break in Job's plot ([5]; AMF and Cu^2+ in EtOH-PBS (1:10)): 0.7 mole fraction of Cu
- Cu bound per AMF (stoichiometry) ([5]; from Job's plot): at least 2 equiv
- pZn (pM = −log[M]free) [6]: 8.15
- pCu (pM = −log[M]free) ([7]; pH 6.6): 9.62
- pCu (pM = −log[M]free) ([7]; pH 7.4): 10.44
SMILES: O=c1cc(-c2ccc(O)c(-c3c(O)cc(O)c4c(=O)cc(-c5ccc(O)cc5)oc34)c2)oc2cc(O)cc(O)c12 [AMF, amentoflavone]
- Effect on Aβ42 fibrillization (ThT fluorescence) (Aβ42 peptide [1]): dramatically reduced the fibrillization of Aβ42
- Disaggregation of preformed Aβ42 fibrils (ThT fluorescence) (Aβ42 fibrils [2]): efficient at reducing the amount of Aβ42 fibrils
- Fluorescence intensity of stained brain sections (amyloid plaques; 25 μM): strong fluorescent intensity
- Pearson's correlation coefficient, colocalization with HJ3.4 immunofluorescence (amyloid plaques; [AMF] = [Cu^2+] = 25 μM, [HJ3.4] = 1 μg/mL): 0.65
- Aβ42 aggregates observed by TEM (Aβ42 peptide [3]; in the absence and presence of Cu^2+): only small amorphous aggregates were observed
- Aβ42 aggregates by native gel/Western blot (Aβ42 peptide [3]; in the presence of Cu^2+): the amount of soluble Aβ42 oligomers is also reduced
- Aβ42 aggregates by native gel/Western blot (Aβ42 peptide [3]; in the presence of Zn^2+): a wide range of various-size aggregates is formed
- Aβ42 aggregates observed by TEM (Aβ42 peptide [3]; in the presence of Zn^2+): a range of amorphous and fibrillar aggregates is formed
- Aβ42 aggregates by native gel/Western blot (Aβ42 peptide [3]; no metal ions): dramatically reduces the amount of large Aβ42 aggregates
- Disaggregation of Aβ42 aggregates (TEM, native gel/Western blot) (Aβ42 fibrils [4]; Cu^2+-incubated Aβ42 aggregates): reduction in the amount of both large aggregates and smaller Aβ42 oligomers
- Disaggregation of Aβ42 fibrils (TEM, native gel/Western blot) (Aβ42 fibrils [4]; no metal ions, 24 h fibrilization then 24 h with AMF): disaggregates the Aβ42 fibrils efficiently
- Effect on ascorbate consumption ([8]; AMF added to the Cu^2+-Aβ42-ascorbate solution, [Aβ42] = 12 μM): efficiently reduce the consumption of ascorbate
- Effect on ascorbate consumption ([8]; premixed AMF-Cu^2+ complex, with monomeric Aβ42 12 μM): significant inhibition of the ascorbate consumption
